Assay results reported in ChEMBL document CHEMBL3399944, “Synthesis and anticancer cell potential of steroidal 16,17-seco-16,17a-dinitriles: identification of a selective inhibitor of hormone-independent breast cancer cells” (Bioorg Med Chem, 2015).

Legend:
[1] = Antiproliferative activity against human PC3 cells after 48 hrs by MTT assay; format: functional, cell-based; conditions: PC-3, 48 h
[2] = system: MDA-MB-231; assay: Antiproliferative activity against human MDA-MB-231 cells after 48 hrs by MTT assay; format: functional, cell-based; conditions: MDA-MB-231, 48 h
[3] = system: MRC5; assay: Antiproliferative activity against human MRC5 cells after 48 hrs by MTT assay; format: cell-based; conditions: MRC5, 48 h
[4] = system: HeLa; assay: Antiproliferative activity against human HeLa cells after 48 hrs by MTT assay; format: functional, cell-based
[5] = system: MDA-MB-231; assay: Induction of apoptosis in human MDA-MB-231 cells at IC50 after 48 hrs by Giemsa staining-based light microscopy (reference value: 7%); format: functional
[6] = system: MCF7; assay: Antiproliferative activity against human MCF7 cells after 48 hrs by MTT assay; format: functional, cell-based; conditions: MCF7, 48 h
[7] = system: MDA-MB-231; assay: Antiproliferative activity against human MDA-MB-231 cells at 10 nM after 48 hrs by MTT assay; format: functional; conditions: MDA-MB-231, 48 h
[8] = system: MCF7; assay: Antiproliferative activity against human MCF7 cells at 10 nM after 48 hrs by MTT assay; format: functional; conditions: MCF7, 48 h

SMILES | IC50 [1] | IC50 [2] | IC50 [3] | IC50 [4] | Activity [5] | IC50 [6] | inhibition at 0.01 µM [7] | inhibition at 0.01 µM [8]
C[C@]1(CC#N)CC[C@@H]2c3ccc(O)cc3CC[C@H]2[C@@H]1CC#N | 11.2 µM | 3.96 µM | > 100 µM | 7.32 µM | 11.1% | 17 µM |  | 
C[C@]1(CC#N)CC[C@H]2[C@@H](CC=C3C[C@@H](O)CC[C@@]32C)[C@@H]1CC#N | 19.1 µM | 34.8 µM | > 100 µM | 2.15 µM | 18% | 30 µM |  | 
C[C@]1(CC#N)CC[C@H]2[C@@H](CCC3=CC(=O)CC[C@@]32C)[C@@H]1CC#N | 8.27 µM | 15.5 µM | > 100 µM | 5.73 µM | 15.9% | 15 µM |  | 
C[C@]1(CC#N)CC[C@H]2[C@@H](CCC3=C(O)C(=O)CC[C@@]32C)[C@@H]1CC#N | 8.69 µM | 39.6 µM | > 100 µM | 14.7 µM | 11% | 57 µM |  | 
C[C@]1(CC#N)CC[C@H]2[C@@H](CCC3=CC(=O)C=C[C@@]32C)[C@@H]1CC#N | 70.9 µM | 0.11 µM | > 100 µM | 12.5 µM | 14.1% | 0.52 µM | 69% | 61%
COc1cccc2c1C(=O)c1c(O)c3c(c(O)c1C2=O)C[C@@](O)(C(=O)CO)C[C@@H]3O[C@H]1C[C@H](N)[C@H](O)[C@H](C)O1 [DOXORUBICIN] | 95.6 µM |  |  |  | 11% | 0.75 µM |  | 
C[C@]12CCC(=O)C(O)=C1CC[C@@H]1[C@@H]2CC[C@]2(C)C(=O)CC[C@@H]12 [FORMESTANE] | 45.6 µM | 53.3 µM | > 100 µM | 1.9 µM | 11% | > 100 µM |  | 
